Assays:
Assay type in all cases: in vivo
[1] = tested on: Common house mosquito (Culex pipiens pallens) female adult insects; assay: Test Example 2: knockdown by burning insect repellent incense in metallic cylinder, 7 minutes; conditions: B alone
Description: (§1) Wood powder 75 parts by weight, tab powder 5 parts by weight, lees powder 5 parts by weight, siam powder 10 parts by weight, and tapioca starch powder 5 parts by weight were mixed, and appropriate amount of water was added thereto and the resulting mixture was kneaded thoroughly. The kneaded mixture was molded to a sheet shape, and punched out to a spiral shape, and thereafter, the resulting mixture was dried to make an approximate degree of 7 to 10% by weight of moisture contents to prepare the blank insect repellent incense.
(§2) The acetone solution of the testing compounds that were diluted to make the prescribed concentrations were applied dropwise uniformly to the obtained blank insect repellent incense, and then air-dried to prepare the test formulation.
Common house mosquito (Culex pipiens pallens) female adult insects 20 were placed in the glass tube with 4.5 cm of a diameter and 12 cm of a height, and they were shut in the glass tube by covering the opening parts of the top and the bottom thereof with a nylon net having 16 mesh by a rubber band. A metallic cylinder with 22 cm of a diameter and 83 cm of the height was installed and set up, and two (2) of the above glass tube in which common house mosquito (Culex pipiens pallens) were placed were installed in the upper opening part and then fixed. The formulation that was prepared according to the above process was set to fire, and set up in the bottom opening part of the metallic cylinder. Seven (7) minutes later, the number of knockdowned (hereinafter, abbreviated as “KD”) individuals were recorded. The experiments were conducted in triple replicates to calculate the KD ratio.

[2] = tested on: Common house mosquito (Culex pipiens pallens) female adult insects; assay: Test Example 3: knockdown by burning insect repellent incense in metallic cylinder, 10 minutes; conditions: B alone
Description: as §1, §2
Common house mosquito (Culex pipiens pallens) female adult insects 20 were placed in the glass tube with 4.5 cm of a diameter and 12 cm of a height, and they were shut in the glass tube by covering the opening parts of the top and the bottom thereof with a nylon net having 16 mesh by a rubber band. […] Ten (10) minutes later, the number of knockdowned (hereinafter, abbreviated as “KD”) individuals were recorded. […]

[3] = molecular target: Common house mosquito (Culex pipiens pallens) female adult insects; assay: Test Example 1: knockdown by burning insect repellent incense in metallic cylinder, 6 minutes; conditions: B alone, 0.01% in incense
Description: as §1, §2
Common house mosquito (Culex pipiens pallens) female adult insects 20 were placed in the glass tube with 4.5 cm of a diameter and 12 cm of a height, and they were shut in the glass tube by covering the opening parts of the top and the bottom thereof with a nylon net having 16 mesh by a rubber band. […] Six (6) minutes later, the number of individuals of knockdowned common house mosquito (Culex pipiens pallens) were recorded. […]

Row | SMILES | KD ratio when used alone ([1]; 0.005%) | KD ratio when used alone ([1]; 0.01%) | KD ratio when used alone ([2]; 0.01%) | KD ratio when used alone ([2]; 0.005%) | KD ratio when used alone [3]
1 | CC1(C)[C@H](C=C(Cl)Cl)[C@H]1C(=O)OCc1c(F)c(F)cc(F)c1F [Transfluthrin, transfluthrin] | KD ratio 5.0% | KD ratio 10.0% | KD ratio 81.7% | – | –
2 | COCc1c(F)c(F)c(COC(=O)C2C(C=C(C)C)C2(C)C)c(F)c1F (centres unmarked) [Dimefluthrin, dimefluthrin] | KD ratio 2.7% | KD ratio 68.3% | – | KD ratio 45.0% | –
3 | C/C=C/C1C(C(=O)OCc2c(F)c(F)c(COC)c(F)c2F)C1(C)C (centres unmarked) [Metofluthrin, metofluthrin] | – | KD ratio 75.0% | – | – | KD ratio 30.0%

Source: US20240180138A1, “Heating Transpiration Composition, and Method for Exterminating Harmful Arthropods Using Same” (SUMITOMO CHEMICAL COMPANY, LIMITED, priority 2021, published 2024)
